Consider 8 compounds from US9079838B2, “Ortho-phenylphenol compounds” (Dow Global Technologies LLC, priority 2011, dated 2015).

Where only a bound is given, the exact number is not on record here.

Data set [1] can be described thus: solubility in organic solvents at −10° C. The settings on record: for soluble at (concentration) in AROMATIC 200: AROMATIC 200, −10° C.; for soluble at (concentration) in dipropylene glycol dimethyl ether / soluble at (concentration) in tetralin / soluble at (concentration) in NMP / soluble at (concentration) in DMAc: −10° C. The data set is classed as physicochemical.

A short description of data set [2]: Solubility of Ex. 13 Product: 10% w/w solution in AROMATIC 200 stored in −11° C. freezer. The data set is classed as physicochemical. Particulars: 10% w/w in AROMATIC 200, −11° C. freezer, 2 weeks. As to the method:
Solubility of Ex. 13 Product: A solution (10% w/w) in AROMATIC 200 was prepared at room temperature. The clear solution was placed in a −11° C. freezer for 2 weeks.

As for `CCCCCCCCCCCCOc1ccccc1-c1ccccc1` [2-(dodecyloxy)-1,1′-biphenyl], the melting point (commonly the temperature, or range, at which the solid turns liquid) was 27 to 29 °C. Besides, in data set [1], the “soluble at (concentration) in AROMATIC 200” value amounted to 10%, the “soluble at (concentration) in dipropylene glycol dimethyl ether” value is 10% and the “soluble at (concentration) in tetralin” value worked out at 10%.

Turning to `c1ccc(-c2ccccc2OCc2ccc(COc3ccccc3-c3ccccc3)cc2)cc1` [1,4-bis(([1,1′-biphenyl]-2-yloxy)-methyl)benzene], the melting point lay in the range of 140 to 142 °C. The “soluble at (concentration) in NMP” value in data set [1] is listed as 10%.

Consider `CCCCCCCCCCCCCCOc1ccccc1-c1ccccc1` [2-(tetradecyloxy)-1,1′-biphenyl], for which the “soluble at (concentration) in tetralin” value in data set [1] was determined as 7.5%.

Regarding `O=C(Oc1ccccc1-c1ccccc1)c1ccccc1` [Ex. 13 Product, [1,1′-biphenyl]-2-yl benzoate], the “crystallization from solution on cold storage” value in data set [2] is listed as “No visibly detectable crystallization occurred”.

In turn, `CCCCCCCCCCCCCCCCCCOc1ccccc1-c1ccccc1` [2-(octadecyloxy)-1,1′-biphenyl] yielded a melting point of 42 to 45 °C. For the same compound, the “soluble at (concentration) in tetralin” value in data set [1] is reported as less than 5%.

As to `c1ccc(-c2ccccc2OCc2ccccc2COc2ccccc2-c2ccccc2)cc1` [1,2-bis(([1,1′-biphenyl]-2-yloxy)-methyl)benzene], in data set [1], the “soluble at (concentration) in AROMATIC 200” value is listed as 10%, the “soluble at (concentration) in DMAc” value is recorded as 10%, the “soluble at (concentration) in NMP” value is recorded as 10% and the “soluble at (concentration) in dipropylene glycol dimethyl ether” value turned out to be 10%. Further, in data set [1], the “soluble at (concentration) in tetralin” value is on record as 10%.

In the case of `c1ccc(-c2ccccc2OCc2ccc(-c3ccc(COc4ccccc4-c4ccccc4)cc3)cc2)cc1` [4,4′-bis(([1,1′-biphenyl]-2-yloxy)methyl)-1,1′-biphenyl], the melting point fell in the range of 149 to 151 °C. The “soluble at (concentration) in NMP” value in data set [1] was 10%.

`c1ccc(-c2ccccc2OCCCCOc2ccccc2-c2ccccc2)cc1` [1,4-bis([1,1′-biphenyl]-2-yloxy)butane] registered a melting point of 62 to 67 °C. In data set [1], the “soluble at (concentration) in DMAc” value worked out at 10%, the “soluble at (concentration) in NMP” value amounted to 10% and the “soluble at (concentration) in dipropylene glycol dimethyl ether” value is given as 10%.
